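Growth conditions: 96-well plates. Treatment: test compound, 48 hours, 5 concentrations. Analysis: linear interpolation between bracketing concentrations; unreached endpoints set to highest concentration. At the GI50, growth is halved.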 Activity calls are given as the source filed them. Rule as the data show it: active = GI50 up to about 1.1 µM and inactive = higher.
Legend:
Assay in all cases: growth of human tumour cells (NCI), 48 h
LXFL 529 = test system: LXFL 529
HOP-18 = test system: HOP-18
XF498 = test system: XF498
SNB-78 = test system: SNB-78
RXF 631 = test system: RXF 631
DLD-1 = test system: DLD-1
M19-MEL = test system: M19-MEL
DMS-114 = test system: DMS-114
DMS-273 = test system: DMS-273

N#Cc1cc([N+](=O)[O-])ccc1NC(=O)C(=O)C(C(=O)/C=C/c1ccccc1)C1OC(=O)c2ccccc21 (stereo not drawn)
GI50 (LXFL 529): > 100 µM (inactive) | GI50 (HOP-18): > 100 µM (inactive) | GI50 (XF498): > 100 µM (inactive) | GI50 (SNB-78): > 100 µM (inactive) | GI50 (RXF 631): > 100 µM (inactive) | GI50 (DLD-1): > 100 µM (inactive) | GI50 (M19-MEL): > 100 µM (inactive) | GI50 (DMS-114): > 100 µM (inactive)

CC1=C(C(=O)Nc2cccc(Cl)c2)C(c2ccccc2O)C(C(=O)Nc2cccc(Cl)c2)=C(C)N1
GI50 (LXFL 529): 21.8 µM (inactive) | GI50 (SNB-78): 24.5 µM (inactive) | GI50 (DLD-1): 18.4 µM (inactive) | GI50 (M19-MEL): 19.4 µM (inactive) | GI50 (DMS-114): 22.4 µM (inactive)

NN1C(=O)C(CCO)S/C1=N/N=C1/SC(CCO)C(=O)N1N (stereo not drawn)
GI50 (LXFL 529): > 100 µM (inactive) | GI50 (HOP-18): > 100 µM (inactive) | GI50 (XF498): 16.1 µM (inactive) | GI50 (SNB-78): > 100 µM (inactive) | GI50 (DLD-1): > 100 µM (inactive) | GI50 (M19-MEL): > 100 µM (inactive) | GI50 (DMS-114): > 100 µM (inactive)

COc1cc2cc3c4cc(OC)c(OC)cc4cc[n+]3cc2cc1OC
GI50 (HOP-18): > 100 µM (inactive) | GI50 (XF498): > 100 µM (inactive) | GI50 (SNB-78): > 74.3 µM (inactive) | GI50 (DLD-1): > 100 µM (inactive) | GI50 (DMS-273): > 100 µM (inactive) | GI50 (M19-MEL): > 100 µM (inactive) | GI50 (DMS-114): 1 µM (active)

CN(Cc1cnc2nc(N)nc(N)c2n1)c1ccc(C(=O)NC(CCC(=O)O)C(=O)O)c2ccccc12 (stereo not drawn)
GI50 (LXFL 529): 0.00135 µM (active) | GI50 (HOP-18): > 100 µM (inactive) | GI50 (XF498): > 100 µM (inactive) | GI50 (SNB-78): > 65 µM (inactive) | GI50 (DLD-1): 0.01 µM (active) | GI50 (DMS-273): 0.01 µM (active) | GI50 (M19-MEL): 0.01 µM (active) | GI50 (DMS-114): 0.000847 µM (active)

CCOc1ccc(NC(=O)/C(CC(=O)c2c[n+]([O-])c3ccccc3[n+]2[O-])=N\OCCCc2ccccc2)cc1
GI50 (LXFL 529): > 100 µM (inactive) | GI50 (SNB-78): > 100 µM (inactive) | GI50 (RXF 631): > 100 µM (inactive) | GI50 (DLD-1): > 100 µM (inactive) | GI50 (DMS-273): > 100 µM (inactive) | GI50 (M19-MEL): > 100 µM (inactive) | GI50 (DMS-114): > 100 µM (inactive)

CCCC1N2CCCCC2[C@@H]2c3[nH]c4ccccc4c3CCN12 (stereo partly drawn)
GI50 (LXFL 529): > 100 µM (inactive) | GI50 (HOP-18): > 100 µM (inactive) | GI50 (XF498): > 100 µM (inactive) | GI50 (SNB-78): 53.8 µM (inactive) | GI50 (DLD-1): > 100 µM (inactive) | GI50 (DMS-273): > 100 µM (inactive) | GI50 (M19-MEL): > 100 µM (inactive) | GI50 (DMS-114): > 100 µM (inactive)

O=C(O)[C@@H]1OCCOCCO[C@@H](C(=O)O)[C@H](C(=O)O)OCCOCCO[C@H]1C(=O)O
GI50 (LXFL 529): > 100 µM (inactive) | GI50 (HOP-18): > 100 µM (inactive) | GI50 (XF498): > 30.3 µM (inactive) | GI50 (SNB-78): > 100 µM (inactive) | GI50 (DLD-1): > 42.1 µM (inactive) | GI50 (DMS-273): > 100 µM (inactive) | GI50 (M19-MEL): > 100 µM (inactive) | GI50 (DMS-114): > 50.8 µM (inactive)

COc1cc(-c2c(C)c(C)nc(OC)c2C#N)cc(OC)c1OC
GI50 (LXFL 529): 41.9 µM (inactive) | GI50 (HOP-18): 46.1 µM (inactive) | GI50 (SNB-78): 92 µM (inactive) | GI50 (DLD-1): > 100 µM (inactive) | GI50 (M19-MEL): > 100 µM (inactive) | GI50 (DMS-114): 49.8 µM (inactive)

CC(=O)OC1CC2(c3ccccc3)C(=O)c3ccccc3N2O1 (stereo not drawn)
GI50 (LXFL 529): > 100 µM (inactive) | GI50 (HOP-18): > 100 µM (inactive) | GI50 (XF498): > 100 µM (inactive) | GI50 (SNB-78): > 100 µM (inactive) | GI50 (DLD-1): > 100 µM (inactive) | GI50 (DMS-273): > 100 µM (inactive) | GI50 (M19-MEL): > 100 µM (inactive) | GI50 (DMS-114): > 100 µM (inactive)

c1ccc(SC2(Sc3ccccc3)CCCC2)cc1
GI50 (XF498): > 100 µM (inactive) | GI50 (SNB-78): > 100 µM (inactive) | GI50 (RXF 631): > 100 µM (inactive) | GI50 (DLD-1): > 100 µM (inactive) | GI50 (DMS-273): > 100 µM (inactive) | GI50 (M19-MEL): > 100 µM (inactive) | GI50 (DMS-114): > 100 µM (inactive)

COc1cccc2[s+]snc12
GI50 (LXFL 529): 43.3 µM (inactive) | GI50 (HOP-18): 41.3 µM (inactive) | GI50 (XF498): 18.8 µM (inactive) | GI50 (SNB-78): 38.7 µM (inactive) | GI50 (DLD-1): 35.6 µM (inactive) | GI50 (DMS-273): 53.2 µM (inactive) | GI50 (M19-MEL): 22.8 µM (inactive)

COc1ccc(NC(=O)C(=O)C(C(=O)c2ccccc2)C2OC(=O)c3ccccc32)c([N+](=O)[O-])c1 (stereo not drawn)
GI50 (LXFL 529): > 100 µM (inactive) | GI50 (HOP-18): > 100 µM (inactive) | GI50 (XF498): > 100 µM (inactive) | GI50 (SNB-78): > 100 µM (inactive) | GI50 (DLD-1): > 100 µM (inactive) | GI50 (DMS-273): > 100 µM (inactive) | GI50 (M19-MEL): > 100 µM (inactive) | GI50 (DMS-114): > 100 µM (inactive)

O=C(/C=C/c1ccccc1)CC1OC(=O)c2ccccc21 (stereo not drawn)
GI50 (LXFL 529): 46.7 µM (inactive) | GI50 (HOP-18): 14.9 µM (inactive) | GI50 (XF498): > 100 µM (inactive) | GI50 (DLD-1): > 100 µM (inactive) | GI50 (DMS-273): > 100 µM (inactive) | GI50 (M19-MEL): 45.8 µM (inactive) | GI50 (DMS-114): 46.3 µM (inactive)

Cc1cc(N(CCC#N)CCC#N)ccc1/C=C1N=C(/C=C\c2ccccc2)N(NC(=O)CC(=O)Nc2ccccc2Cl)C\1=O
GI50 (LXFL 529): > 100 µM (inactive) | GI50 (HOP-18): > 100 µM (inactive) | GI50 (RXF 631): > 100 µM (inactive) | GI50 (DLD-1): > 100 µM (inactive) | GI50 (M19-MEL): > 100 µM (inactive) | GI50 (DMS-114): > 100 µM (inactive)

O=C1C(=O)N(c2ccc(Cl)cc2)C(=O)C(=O)C1c1nc2ccccc2s1
GI50 (LXFL 529): > 100 µM (inactive) | GI50 (HOP-18): > 100 µM (inactive) | GI50 (XF498): > 100 µM (inactive) | GI50 (SNB-78): > 100 µM (inactive) | GI50 (DMS-273): > 100 µM (inactive) | GI50 (M19-MEL): > 100 µM (inactive) | GI50 (DMS-114): > 100 µM (inactive)

CCC(C)(C)C(=O)O[C@H]1C[C@@H](C)C=C2C=C[C@H](C)[C@H](CC[C@@H]3C[C@@H](O)CC(=O)O3)[C@H]21 [SIMVASTATIN]
GI50 (LXFL 529): 6.67 µM (inactive) | GI50 (HOP-18): > 30 µM (inactive) | GI50 (XF498): > 30 µM (inactive) | GI50 (SNB-78): > 30 µM (inactive) | GI50 (RXF 631): 0.55 µM (active) | GI50 (DLD-1): > 30 µM (inactive) | GI50 (DMS-273): 2.88 µM (inactive) | GI50 (M19-MEL): 1.56 µM (inactive) | GI50 (DMS-114): 23.7 µM (inactive)

Oc1ccc2ccccc2c1/N=N/c1ccc(F)cc1
GI50 (LXFL 529): > 100 µM (inactive) | GI50 (HOP-18): > 100 µM (inactive) | GI50 (DMS-273): > 100 µM (inactive) | GI50 (M19-MEL): > 100 µM (inactive) | GI50 (DMS-114): > 100 µM (inactive)

CNS(=O)(=O)NNS(=O)(=O)c1ccc(OC)cc1
GI50 (LXFL 529): > 100 µM (inactive) | GI50 (XF498): > 100 µM (inactive) | GI50 (RXF 631): > 100 µM (inactive) | GI50 (DLD-1): > 100 µM (inactive) | GI50 (DMS-273): > 100 µM (inactive) | GI50 (M19-MEL): > 100 µM (inactive) | GI50 (DMS-114): > 100 µM (inactive)

Cc1cc(C)nc(NS(=O)(=O)c2ccc(Nc3c4ccccc4nc4c(C(=O)Nc5ccc(S(=O)(=O)N=C(N)N)cc5)cccc34)cc2)n1
GI50 (HOP-18): > 100 µM (inactive) | GI50 (SNB-78): > 100 µM (inactive) | GI50 (RXF 631): > 100 µM (inactive) | GI50 (DLD-1): > 100 µM (inactive) | GI50 (DMS-273): > 100 µM (inactive) | GI50 (M19-MEL): > 100 µM (inactive) | GI50 (DMS-114): > 100 µM (inactive)

Cc1c2cc[n+](CCN3CCCCC3)cc2c(C)c2c1[nH]c1ccc(O)cc12
GI50 (HOP-18): 13.1 µM (inactive) | GI50 (SNB-78): 3.75 µM (inactive) | GI50 (DLD-1): 4.6 µM (inactive) | GI50 (DMS-273): 1.72 µM (inactive) | GI50 (M19-MEL): 0.982 µM (active) | GI50 (DMS-114): 1.51 µM (inactive)

COC(=O)C12CCC(CC1=O)C2(C)C (stereo not drawn)
GI50 (HOP-18): > 100 µM (inactive) | GI50 (XF498): > 100 µM (inactive) | GI50 (DLD-1): > 100 µM (inactive) | GI50 (DMS-273): > 100 µM (inactive) | GI50 (DMS-114): 99.5 µM (inactive)

From ChEMBL document CHEMBL1201862, “PubChem BioAssay data set” (2004)
